Experimental data: the NIST ThermoML archive (doi:10.1016/j.jct.2014.05.016)
± gives the expanded uncertainty stated by the source.

Test: xn = mol fraction of the nth substance listed
Conditions: 100 kPa, Liquid; for viscosity: Concentric cylinders viscometry; for mass density: Vibrating tube method

C[n+]1ccn(CCO)c1.F[B-](F)(F)F [1-(2-hydroxyethyl)-3-methylimidazolium tetrafluoroborate] + CCCC[n+]1ccccc1.F[B-](F)(F)F
Conditions | mass density [kg/m3] | viscosity [mPa·s]
293.15 K, x1 = 0.1003 | 1229 ± 1.1 | 218.7 ± 18
293.15 K, x1 = 0.2001 | – | 205.9 ± 17
293.15 K, x1 = 0.2004 | 1242.4 ± 1.1 | –
293.15 K, x1 = 0.2997 | – | 193.9 ± 16
293.15 K, x1 = 0.3003 | 1255.9 ± 1.1 | –
293.15 K, x1 = 0.3999 | 1269.7 ± 1.1 | 184.2 ± 15
293.15 K, x1 = 0.4996 | – | 176.1 ± 14
293.15 K, x1 = 0.5007 | 1284.2 ± 1.1 | –
293.15 K, x1 = 0.5991 | 1298.7 ± 1.1 | 169.5 ± 14
293.15 K, x1 = 0.6954 | 1313.4 ± 1.1 | –
293.15 K, x1 = 0.6997 | – | 164.2 ± 13
293.15 K, x1 = 0.7997 | 1329.9 ± 1.1 | –
293.15 K, x1 = 0.7999 | – | 159.9 ± 13
293.15 K, x1 = 0.8996 | 1346.1 ± 1.1 | –
293.15 K, x1 = 0.8998 | – | 155.4 ± 13
293.15 K, x1 = 1 | 1362.4 ± 1.1 | 153.6 ± 12
298.15 K, x1 = 0.1003 | 1225.5 ± 1.1 | 160.4 ± 13
298.15 K, x1 = 0.2001 | – | 151.5 ± 12
298.15 K, x1 = 0.2004 | 1238.9 ± 1.1 | –
298.15 K, x1 = 0.2997 | – | 143.4 ± 12
298.15 K, x1 = 0.3003 | 1252.3 ± 1.1 | –
298.15 K, x1 = 0.3999 | 1266.1 ± 1.1 | 136.7 ± 11
298.15 K, x1 = 0.4996 | – | 131.1 ± 11
298.15 K, x1 = 0.5007 | 1280.6 ± 1.1 | –
298.15 K, x1 = 0.5991 | 1295.1 ± 1.1 | 126.4 ± 10
298.15 K, x1 = 0.6954 | 1309.8 ± 1.1 | –
298.15 K, x1 = 0.6997 | – | 122.7 ± 9.9
298.15 K, x1 = 0.7997 | 1326.1 ± 1.1 | –
298.15 K, x1 = 0.7999 | – | 119.5 ± 9.7
298.15 K, x1 = 0.8996 | 1342.3 ± 1.1 | –
298.15 K, x1 = 0.8998 | – | 116 ± 9.4
298.15 K, x1 = 1 | 1358.7 ± 1.1 | 115.1 ± 9.3
303.15 K, x1 = 0.1003 | 1222 ± 1.1 | 120.3 ± 9.7
303.15 K, x1 = 0.2001 | – | 114.2 ± 9.2
303.15 K, x1 = 0.2004 | 1235.4 ± 1.1 | –
303.15 K, x1 = 0.2997 | – | 108.5 ± 8.8
303.15 K, x1 = 0.3003 | 1248.8 ± 1.1 | –
303.15 K, x1 = 0.3999 | 1262.5 ± 1.1 | 104 ± 8.4
303.15 K, x1 = 0.4996 | – | 99.88 ± 8.1
303.15 K, x1 = 0.5007 | 1277 ± 1.1 | –
303.15 K, x1 = 0.5991 | 1291.4 ± 1.1 | 96.68 ± 7.8
303.15 K, x1 = 0.6954 | 1306.1 ± 1.1 | –
303.15 K, x1 = 0.6997 | – | 94.02 ± 7.6
303.15 K, x1 = 0.7997 | 1322.4 ± 1.1 | –
303.15 K, x1 = 0.7999 | – | 91.38 ± 7.4
303.15 K, x1 = 0.8996 | 1338.6 ± 1.1 | –
303.15 K, x1 = 0.8998 | – | 88.75 ± 7.1
303.15 K, x1 = 1 | 1354.8 ± 1.1 | 87.98 ± 7.1
308.15 K, x1 = 0.1003 | 1218.7 ± 1.1 | 92.07 ± 7.4
308.15 K, x1 = 0.2001 | – | 87.89 ± 7.1
308.15 K, x1 = 0.2004 | 1231.9 ± 1.1 | –
308.15 K, x1 = 0.2997 | – | 83.89 ± 6.8
308.15 K, x1 = 0.3003 | 1245.3 ± 1.1 | –
308.15 K, x1 = 0.3999 | 1259 ± 1.1 | 80.56 ± 6.5
308.15 K, x1 = 0.4996 | – | 77.78 ± 6.2
308.15 K, x1 = 0.5007 | 1273.4 ± 1.1 | –
308.15 K, x1 = 0.5991 | 1287.9 ± 1.1 | 75.21 ± 6
308.15 K, x1 = 0.6954 | 1302.4 ± 1.1 | –
308.15 K, x1 = 0.6997 | – | 73.36 ± 5.9
308.15 K, x1 = 0.7997 | 1318.8 ± 1.1 | –
308.15 K, x1 = 0.7999 | – | 71.46 ± 5.7
308.15 K, x1 = 0.8996 | 1334.9 ± 1.1 | –
308.15 K, x1 = 0.8998 | – | 69.32 ± 5.6
308.15 K, x1 = 1 | 1351.2 ± 1.1 | 68.59 ± 5.5
313.15 K, x1 = 0.1003 | 1215.2 ± 1.1 | 71.96 ± 5.8
313.15 K, x1 = 0.2001 | – | 69.99 ± 5.6
313.15 K, x1 = 0.2004 | 1228.4 ± 1.1 | –
313.15 K, x1 = 0.2997 | – | 66.1 ± 5.3
313.15 K, x1 = 0.3003 | 1241.8 ± 1.1 | –
313.15 K, x1 = 0.3999 | 1255.5 ± 1.1 | 63.68 ± 5.1
313.15 K, x1 = 0.4996 | – | 61.56 ± 4.9
313.15 K, x1 = 0.5007 | 1269.9 ± 1.1 | –
313.15 K, x1 = 0.5991 | 1284.4 ± 1.1 | 59.69 ± 4.8
313.15 K, x1 = 0.6954 | 1298.8 ± 1.1 | –
313.15 K, x1 = 0.6997 | – | 58.34 ± 4.7
313.15 K, x1 = 0.7997 | 1315.1 ± 1.1 | –
313.15 K, x1 = 0.7999 | – | 56.8 ± 4.5
313.15 K, x1 = 0.8996 | 1331.2 ± 1.1 | –
313.15 K, x1 = 0.8998 | – | 55.18 ± 4.4
313.15 K, x1 = 1 | 1347.4 ± 1.1 | 54.81 ± 4.4
318.15 K, x1 = 0.1003 | – | 57.27 ± 4.6
318.15 K, x1 = 0.2001 | – | 55.12 ± 4.4
318.15 K, x1 = 0.2997 | – | 52.99 ± 4.2
318.15 K, x1 = 0.3999 | – | 51.21 ± 4.1
318.15 K, x1 = 0.4996 | – | 49.63 ± 4
318.15 K, x1 = 0.5991 | – | 48.25 ± 3.9
318.15 K, x1 = 0.6997 | – | 47.11 ± 3.8
318.15 K, x1 = 0.7999 | – | 45.99 ± 3.7
318.15 K, x1 = 0.8998 | – | 44.69 ± 3.6
318.15 K, x1 = 1 | – | 44.44 ± 3.6
